Where “and” joins values, the source holds several entries; their conditions need not be identical. Equal values may be shown once. Inconclusive results and toxic doses are left out. The calls were made as follows: active = survival T/C of 150% or more; inactive = T/C below 125% in these data.
Test system: CD2F1 mice, L1210 leukemia ip, survival T/C
Assay: NCI In Vivo Anticancer Drug Screen. Data for tumor model L1210 Leukemia (intraperitoneal) in CD2F1 (CDF1) mice
Conditions: higher = longer survival
Method in brief: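 Transplantable tumor in mice; compound-treated vs vehicle-treated groups. Read-out = treated/control ratio of the measured endpoint.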

[1] = endpoint: mean survival time, dose: 100.0 mg/kg/injection, schedule: Q01DX009 (ip), vehicle: saline with Tween-80
[2] = endpoint: mean survival time, dose: 200.0 mg/kg/injection, schedule: Q01DX009 (ip), vehicle: saline with Tween-80
[3] = endpoint: mean survival time, dose: 400.0 mg/kg/injection, schedule: Q01DX009 (ip), vehicle: saline with Tween-80
[4] = endpoint: mean survival time, dose: 100.0 mg/kg/injection, schedule: Q01DX001 (ip), vehicle: saline
[5] = endpoint: mean survival time, dose: 200.0 mg/kg/injection, schedule: Q01DX001 (ip), vehicle: saline
[6] = endpoint: mean survival time, dose: 400.0 mg/kg/injection, schedule: Q01DX001 (ip), vehicle: saline
[7] = endpoint: mean survival time, dose: 100.0 mg/kg/injection, schedule: Q04DX002 (ip), vehicle: saline with Tween-80
[8] = endpoint: mean survival time, dose: 200.0 mg/kg/injection, schedule: Q04DX002 (ip), vehicle: saline with Tween-80
[9] = endpoint: mean survival time, dose: 100.0 mg/kg/injection, schedule: Q04DX003 (ip), vehicle: saline with Tween-80
[10] = endpoint: mean survival time, dose: 200.0 mg/kg/injection, schedule: Q04DX003 (ip), vehicle: saline with Tween-80
[11] = endpoint: mean survival time, dose: 400.0 mg/kg/injection, schedule: Q04DX003 (ip), vehicle: saline with Tween-80
[12] = endpoint: mean survival time, dose: 100.0 mg/kg/injection, schedule: Q01DX001 (ip), vehicle: saline with Tween-80
[13] = endpoint: mean survival time, dose: 200.0 mg/kg/injection, schedule: Q01DX001 (ip), vehicle: saline with Tween-80
[14] = endpoint: mean survival time, dose: 400.0 mg/kg/injection, schedule: Q01DX001 (ip), vehicle: saline with Tween-80

Measured: T/C

OCCOCCN1CCN(CC/C=C2\c3ccccc3Sc3ccc(C(F)(F)F)cc32)CC1
inactive: endpoint: mean survival time, dose: 0.75 mg/kg/injection, schedule: Q01DX009 (ip), vehicle: saline 87 % of control | endpoint: mean survival time, dose: 1.5 mg/kg/injection, schedule: Q01DX009 (ip), vehicle: saline 94 % of control | endpoint: mean survival time, dose: 3.0 mg/kg/injection, schedule: Q01DX009 (ip), vehicle: saline 100 % of control | endpoint: mean survival time, dose: 6.25 mg/kg/injection, schedule: Q04DX003 (ip), vehicle: saline 103 % of control | endpoint: mean survival time, dose: 8.0 mg/kg/injection, schedule: Q04DX003 (ip), vehicle: saline with Tween-80 115 % of control | endpoint: mean survival time, dose: 12.0 mg/kg/injection, schedule: Q04DX003 (ip), vehicle: saline with Tween-80 116 % of control | endpoint: mean survival time, dose: 25.0 mg/kg/injection, schedule: Q04DX003 (ip), vehicle: saline 97 % of control | endpoint: mean survival time, dose: 50.0 mg/kg/injection, schedule: Q04DX003 (ip), vehicle: saline 111 % of control | endpoint: mean survival time, dose: 100.0 mg/kg/injection, schedule: Q04DX003 (ip), vehicle: saline 93 % of control

C=C1COC(O)(C2OCOC(C3CC(=O)NC(=O)C3)C2O)C1C (stereo not drawn)
inactive: endpoint: median survival time, dose: 4.0 micrograms/kg/injection, schedule: Q01DX009 (ip), vehicle: water 103 % of control | endpoint: median survival time, dose: 8.0 micrograms/kg/injection, schedule: Q01DX009 (ip), vehicle: saline 110 % of control | endpoint: median survival time, dose: 8.0 micrograms/kg/injection, schedule: Q01DX009 (ip), vehicle: water 118 % of control and 102 % of control | endpoint: median survival time, dose: 16.0 micrograms/kg/injection, schedule: Q01DX009 (ip), vehicle: saline 116 % of control | endpoint: median survival time, dose: 16.0 micrograms/kg/injection, schedule: Q01DX009 (ip), vehicle: water 116 % of control | endpoint: median survival time, dose: 32.0 micrograms/kg/injection, schedule: Q01DX009 (ip), vehicle: saline 118 % of control

OCC1OC(c2cnn(-c3ccccc3)n2)C(O)C1O (stereo not drawn)
inactive: endpoint: median survival time, dose: 12.5 mg/kg/injection, schedule: Q01DX005 (ip), vehicle: water 103 % of control | endpoint: median survival time, dose: 25.0 mg/kg/injection, schedule: Q01DX005 (ip), vehicle: water 103 % of control | endpoint: median survival time, dose: 50.0 mg/kg/injection, schedule: Q01DX005 (ip), vehicle: water 102 % of control | endpoint: median survival time, dose: 100.0 mg/kg/injection, schedule: Q01DX005 (ip), vehicle: water 104 % of control | endpoint: median survival time, dose: 200.0 mg/kg/injection, schedule: Q01DX005 (ip), vehicle: water 102 % of control

CCN(CC)C(C(=O)Nc1ccccc1)C(=O)Nc1ccccc1
inactive: [1] 98 % of control | [2] 93 % of control | [3] 98 % of control

CCOC(=O)C1CC(c2ccccc2)=NN1c1ccccc1 (stereo not drawn)
inactive: endpoint: mean survival time, dose: 12.5 mg/kg/injection, schedule: Q01DX009 (ip), vehicle: Klucel (hydroxypropylcellulose) (HPC) 95 % of control | endpoint: mean survival time, dose: 25.0 mg/kg/injection, schedule: Q01DX009 (ip), vehicle: Klucel (hydroxypropylcellulose) (HPC) 101 % of control | endpoint: mean survival time, dose: 50.0 mg/kg/injection, schedule: Q01DX009 (ip), vehicle: Klucel (hydroxypropylcellulose) (HPC) 102 % of control | endpoint: mean survival time, dose: 100.0 mg/kg/injection, schedule: Q01DX009 (ip), vehicle: Klucel (hydroxypropylcellulose) (HPC) 101 % of control | endpoint: mean survival time, dose: 200.0 mg/kg/injection, schedule: Q01DX009 (ip), vehicle: Klucel (hydroxypropylcellulose) (HPC) 95 % of control | endpoint: mean survival time, dose: 400.0 mg/kg/injection, schedule: Q01DX009 (ip), vehicle: Klucel (hydroxypropylcellulose) (HPC) 98 % of control

CC(=O)OC1COC(n2cnc3c(N)ncnc32)C(OC(C)=O)C1OC(C)=O (stereo not drawn)
inactive: [4] 108 % of control | [5] 101 % of control | [6] 90 % of control

NC(=O)CSc1ccc(Cl)cc1
inactive: [1] 113 % of control | [2] 94 % of control | [3] 102 % of control

CC(C)(C)c1ccc(-c2ccncc2)cc1
inactive: [7] 87 % of control | [8] 105 % of control

CN(C(=O)Nc1ccc([N+](=O)[O-])cc1)c1ccccc1
inactive: [4] 96 % of control | [5] 98 % of control | [6] 102 % of control

c1ccc2c(c1)CCCN2
inactive: endpoint: mean survival time, dose: 31.5 mg/kg/injection, schedule: Q04DX003 (ip), vehicle: saline with Tween-80 98 % of control | endpoint: mean survival time, dose: 50.0 mg/kg/injection, schedule: Q04DX003 (ip), vehicle: saline with Tween-80 102 % of control | endpoint: mean survival time, dose: 63.0 mg/kg/injection, schedule: Q04DX003 (ip), vehicle: saline with Tween-80 98 % of control | [9] 102 % of control | endpoint: mean survival time, dose: 125.0 mg/kg/injection, schedule: Q04DX003 (ip), vehicle: saline with Tween-80 106 % of control | [10] 93 % of control | [11] 86 % of control

Nc1ccc(S(=O)(=O)c2ccc(N3CCOCC3)c(N)c2)cc1
inactive: [7] 105 % of control | [8] 94 % of control | endpoint: mean survival time, dose: 400.0 mg/kg/injection, schedule: Q04DX002 (ip), vehicle: saline with Tween-80 97 % of control

CC1=C(C)CN(c2ccccc2)SC1
inactive: [9] 98 % of control | [10] 98 % of control | [11] 98 % of control

O=C(O)/C(=C\c1ccccc1)NC(=O)c1ccccc1
inactive: [1] 95 % of control | [2] 96 % of control | [3] 105 % of control

Oc1c(C(c2ccccc2)N2CCOCC2)ccc2ccccc12 (stereo not drawn)
inactive: endpoint: mean survival time, dose: 50.0 mg/kg/injection, schedule: Q01DX009 (ip), vehicle: saline with Tween-80 94 % of control | [1] 102 % of control | [9] 95 % of control | [2] 98 % of control | [10] 103 % of control

COC(OC)c1ccc(Cl)nc1
inactive: [12] 98 % of control | [1] 96 % of control | [13] 101 % of control | [2] 94 % of control | [14] 101 % of control | [3] 92 % of control

COc1ccc(C2OC(=O)c3cccnc32)cc1OC (stereo not drawn)
inactive: endpoint: mean survival time, dose: 12.5 mg/kg/injection, schedule: Q01DX009 (ip), vehicle: other 90 % of control | endpoint: mean survival time, dose: 50.0 mg/kg/injection, schedule: Q01DX009 (ip), vehicle: other 87 % of control | endpoint: mean survival time, dose: 200.0 mg/kg/injection, schedule: Q01DX009 (ip), vehicle: other 88 % of control

CC(=O)O[C@@H]1[C@@H](O)[C@H]2O[C@@H]3C=C(C)CC[C@]3(CO)[C@]1(C)[C@@]21CO1
inactive: endpoint: mean survival time, dose: 1.25 mg/kg/injection, schedule: Q01DX009 (ip), vehicle: saline with Tween-80 103 % of control | endpoint: mean survival time, dose: 2.5 mg/kg/injection, schedule: Q01DX009 (ip), vehicle: saline with Tween-80 115 % of control | endpoint: mean survival time, dose: 5.0 mg/kg/injection, schedule: Q01DX009 (ip), vehicle: saline with Tween-80 115 % of control

C=C1c2ccccc2C=NN1c1ccccc1
inactive: endpoint: mean survival time, dose: 100.0 mg/kg/injection, schedule: Q01DX001 (ip), vehicle: other 94 % of control | endpoint: mean survival time, dose: 200.0 mg/kg/injection, schedule: Q01DX001 (ip), vehicle: other 88 % of control | endpoint: mean survival time, dose: 400.0 mg/kg/injection, schedule: Q01DX001 (ip), vehicle: other 92 % of control

Nc1cccc(CCc2ccc(-c3nc4ncnc(N)c4[nH]3)cc2)c1
inactive: [12] 86 % of control | [13] 88 % of control | [14] 93 % of control

[Cl][Pt]([Cl])[Cl].[NH-]C1CN2CCC1CC2 (stereo not drawn)
inactive: endpoint: mean survival time, dose: 2.5 mg/kg/injection, schedule: Q04DX003 (ip), vehicle: saline with Tween-80 119 % of control | endpoint: mean survival time, dose: 5.0 mg/kg/injection, schedule: Q04DX003 (ip), vehicle: saline with Tween-80 122 % of control

O=[As](O)(c1ccccc1)C1CCCCC1O (stereo not drawn)
inactive: endpoint: mean survival time, dose: 25.0 mg/kg/injection, schedule: Q01DX001 (ip), vehicle: saline with Tween-80 98 % of control

C/C(=N\NC(N)=S)c1ccc2cc3c(cc2c1)OCO3
inactive: endpoint: mean survival time, dose: 75.0 mg/kg/injection, schedule: Q01DX001 (ip), vehicle: saline 119 % of control

O=S1(=O)CC=CC1
inactive: [1] 98 % of control | endpoint: mean survival time, dose: 100.0 mg/kg/injection, schedule: Q04DX003 (ip), vehicle: saline sonified 103 % of control | [2] 101 % of control | endpoint: mean survival time, dose: 200.0 mg/kg/injection, schedule: Q04DX003 (ip), vehicle: saline sonified 106 % of control | [3] 101 % of control | endpoint: mean survival time, dose: 400.0 mg/kg/injection, schedule: Q04DX003 (ip), vehicle: saline sonified 95 % of control

Cc1cc(C)c(C(=O)C2Oc3ccccc3C2c2ccccc2)c(C)c1 (stereo not drawn)
inactive: [1] 95 % of control | [9] 100 % of control | [2] 97 % of control | [10] 102 % of control | [3] 91 % of control | [11] 100 % of control

CCN(CC)CCCCNc1ccc(NCCCCN(CC)CC)c2c1C(=O)c1ccccc1C2=O
inactive: endpoint: mean survival time, dose: 25.0 mg/kg/injection, schedule: Q01DX009 (ip), vehicle: saline 109 % of control | endpoint: mean survival time, dose: 50.0 mg/kg/injection, schedule: Q01DX009 (ip), vehicle: saline 90 % of control | endpoint: mean survival time, dose: 100.0 mg/kg/injection, schedule: Q01DX009 (ip), vehicle: saline 95 % of control

— PubChem BioAssay AID256 (DTP/NCI, 2004)
